Reference: US20220323406A1, “METHODS AND COMPOSITIONS FOR DIFFERENTIATING STEM CELLS” (Massachusetts Institute of Technology, priority 2019, published 2022)

Legend:
[1] = system: ENR+CD organoids (ISC to Paneth cell differentiation); experiment: Primary screen: basal (non-stimulated) lysozyme secretion LYZ.NS, 2.5-D 384-well ENR+CD organoid differentiation; assay type: cell-based, mouse
Excerpt: (§1) High-throughput screening.

ENR+CD organoids = experiment: Primary screen: ATP (CellTiter-Glo 3D, CTG) cell number/viability, 2.5-D 384-well ENR+CD organoids;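 also: compounds given at plating and again on day 3 over a 6-day differentiation from ENR+CV stem-cell-enriched precursors, ATP measured on day 6, plate median as control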
[2] = system: ENR+CD organoids (ISC to Paneth cell differentiation); experiment: Primary screen: CCh-stimulated lysozyme secretion LYZ.S, 2.5-D 384-well ENR+CD organoid differentiation; assay type: cell-based, mouse; conditions: primary screen
Excerpt: as §1

[3] = primary screen, dose 0.08 uM, standard z score
[4] = primary screen, dose 0.40 uM, standard z score
[5] = primary screen, dose 2.00 uM, standard z score
[6] = primary screen, dose 10.00 uM, standard z score
[7] = primary screen; dose 0.08 uM; FC vs plate median
[8] = primary screen; dose 0.40 uM; FC vs plate median
[9] = primary screen; dose 2.00 uM; FC vs plate median
[10] = primary screen; dose 10.00 uM; FC vs plate median
[11] = dose 0.08 uM, FC vs plate median
[12] = dose 0.40 uM, FC vs plate median
[13] = dose 2.00 uM, FC vs plate median
[14] = dose 10.00 uM, FC vs plate median
[15] = primary screen, standard z score, dose 0.08 uM
[16] = primary screen, standard z score, dose 0.40 uM
[17] = primary screen, standard z score, dose 2.00 uM
[18] = primary screen, standard z score, dose 10.00 uM

SMILES	Dose.FC.LYZ.NS ([1]; primary screen, dose 0.08 uM) [log2 fold change]	Z.LYZ.NS (standard z score) ([1]; primary screen, dose 0.08 uM)	Dose.FC.LYZ.NS ([1]; primary screen, dose 0.40 uM) [log2 fold change]	Z.LYZ.NS (standard z score) ([1]; primary screen, dose 0.40 uM)	Dose.FC.LYZ.NS ([1]; primary screen, dose 2.00 uM) [log2 fold change]	Z.LYZ.NS (standard z score) ([1]; primary screen, dose 2.00 uM)	Dose.FC.LYZ.NS ([1]; primary screen, dose 10.00 uM) [log2 fold change]	Z.LYZ.NS (standard z score) ([1]; primary screen, dose 10.00 uM)	Dose.FC.CTG (ENR+CD organoids; primary screen, dose 0.08 uM) [log2 fold change]	Z.CTG (standard z score) (ENR+CD organoids; primary screen, dose 0.08 uM)	Dose.FC.CTG (ENR+CD organoids; primary screen, dose 0.40 uM) [log2 fold change]	Z.CTG (standard z score) (ENR+CD organoids; primary screen, dose 0.40 uM)	Dose.FC.CTG (ENR+CD organoids; primary screen, dose 2.00 uM) [log2 fold change]	Z.CTG (standard z score) (ENR+CD organoids; primary screen, dose 2.00 uM)	Dose.FC.CTG (ENR+CD organoids; primary screen, dose 10.00 uM) [log2 fold change]	Z.CTG (standard z score) (ENR+CD organoids; primary screen, dose 10.00 uM)	Dose.FC.LYZ.S ([2]; dose 0.08 uM) [log2 fold change]	Dose.FC.LYZ.S ([2]; dose 0.40 uM) [log2 fold change]	Dose.FC.LYZ.S ([2]; dose 2.00 uM) [log2 fold change]	Dose.FC.LYZ.S ([2]; dose 10.00 uM) [log2 fold change]	other results
CC(C)c1c(C(=O)Nc2ccccc2)c(-c2ccccc2)c(-c2ccc(F)cc2)n1CC[C@@H](O)C[C@@H](O)CC(=O)[O-].CC(C)c1c(C(=O)Nc2ccccc2)c(-c2ccccc2)c(-c2ccc(F)cc2)n1CC[C@@H](O)C[C@@H](O)CC(=O)[O-].[Ca+2] [Atorvastatin Calcium]	−0.009	−0.077	0.007	0.062	−0.247	−2.148	−0.235	−2.045	−0.129	−0.309	−0.348	−0.831	−1.085	−2.591	−1.583	−3.780	0.022	−0.062	−0.354	−0.305	–
Nc1cccc2c1C(=O)N(C1CCC(=O)NC1=O)C2=O (stereo not shown) [Pomalidomide]	–	–	–	–	–	–	–	–	–	–	–	–	–	–	–	–	–	–	–	–	Z.LYZ.NS [1, 3]: −0.019; Z.LYZ.NS [1, 4]: −0.013; Z.LYZ.NS [1, 5]: −0.334; Z.LYZ.NS [1, 6]: −1.098; Dose.FC.LYZ.NS [1, 7]: −0.002 log2 fold change; Dose.FC.LYZ.NS [1, 8]: −0.001 log2 fold change; Dose.FC.LYZ.NS [1, 9]: −0.038 log2 fold change; Dose.FC.LYZ.NS [1, 10]: −0.126 log2 fold change; Dose.FC.CTG (ENR+CD organoids; [7]): 0.063 log2 fold change; Dose.FC.CTG (ENR+CD organoids; [8]): 0.224 log2 fold change; Dose.FC.CTG (ENR+CD organoids; [9]): −0.216 log2 fold change; Dose.FC.CTG (ENR+CD organoids; [10]): −0.305 log2 fold change; Dose.FC.LYZ.S [2, 11]: −0.028 log2 fold change; Dose.FC.LYZ.S [2, 12]: −0.082 log2 fold change; Dose.FC.LYZ.S [2, 13]: −0.115 log2 fold change; Dose.FC.LYZ.S [2, 14]: −0.205 log2 fold change
Cc1ccc(NC(=O)C2(c3ccc4c(c3)OC(F)(F)O4)CC2)nc1-c1cccc(C(=O)O)c1 [VX-809 (Lumacaftor)]	0.073	0.634	−0.041	−0.353	−0.032	−0.279	−0.082	−0.713	0.177	0.423	−0.062	−0.149	−0.145	−0.346	0.032	0.076	0.218	−0.027	−0.073	−0.117	–
CC(C)(C#N)c1cc(Cn2cncn2)cc(C(C)(C)C#N)c1 [Anastrozole]	0.035	0.305	0.106	0.924	−0.003	−0.026	−0.067	−0.580	−0.117	–	0.024	–	−0.058	–	−0.499	–	0.045	0.100	−0.008	−0.081	–
Nc1ncnc2n[nH]c(Nc3ccc(F)cc3)c12 [CGP57380]	0.218	–	−0.041	–	−0.055	–	−0.037	–	0.108	–	−0.293	–	−0.460	–	0.055	–	0.096	0.054	−0.095	−0.088	Z.LYZ.NS [1, 15]: 1.900; Z.LYZ.NS [1, 16]: −0.354; Z.LYZ.NS [1, 17]: −0.477; Z.LYZ.NS [1, 18]: −0.321; Z.CTG (ENR+CD organoids; [15]): 0.258; Z.CTG (ENR+CD organoids; [16]): −0.700; Z.CTG (ENR+CD organoids; [17]): −1.098; Z.CTG (ENR+CD organoids; [18]): 0.132
N#CC1(c2ccc(NC(=O)c3cccnc3NCc3ccncc3)cc2)CCCC1 [Apatinib]	0.103	0.897	0.038	0.327	0.076	0.660	0.012	0.101	0.223	–	0.302	–	0.270	–	0.218	–	0.173	0.142	0.112	0.075	–
O=C1C(=O)N(Cc2ccc(Cl)c(Cl)c2)c2ccccc21 [Apoptosis Activator 2]	0.149	1.302	0.033	0.290	−0.006	−0.049	−0.199	−1.734	0.304	0.725	0.262	0.626	0.082	0.195	−0.158	−0.378	0.132	0.073	−0.009	−0.252	–
FC(F)(F)c1ccc(/C=C/c2nc(COc3ccc(CCCCn4ccnn4)cc3)co2)cc1 [Mubritinib (TAK 165)]	–	–	–	–	–	–	–	–	–	–	–	–	–	–	–	–	–	–	–	–	Z.LYZ.NS [1, 3]: −0.500; Z.LYZ.NS [1, 4]: −1.687; Z.LYZ.NS [1, 5]: −1.950; Z.LYZ.NS [1, 6]: −2.092; Dose.FC.LYZ.NS [1, 7]: −0.057 log2 fold change; Dose.FC.LYZ.NS [1, 8]: −0.194 log2 fold change; Dose.FC.LYZ.NS [1, 9]: −0.224 log2 fold change; Dose.FC.LYZ.NS [1, 10]: −0.240 log2 fold change; Z.CTG (ENR+CD organoids; [3]): −1.252; Z.CTG (ENR+CD organoids; [4]): −0.812; Z.CTG (ENR+CD organoids; [5]): −1.265; Z.CTG (ENR+CD organoids; [6]): −1.240; Dose.FC.CTG (ENR+CD organoids; [7]): −0.524 log2 fold change; Dose.FC.CTG (ENR+CD organoids; [8]): −0.340 log2 fold change; Dose.FC.CTG (ENR+CD organoids; [9]): −0.530 log2 fold change; Dose.FC.CTG (ENR+CD organoids; [10]): −0.519 log2 fold change; Dose.FC.LYZ.S [2, 11]: −0.119 log2 fold change; Dose.FC.LYZ.S [2, 12]: −0.154 log2 fold change; Dose.FC.LYZ.S [2, 13]: −0.299 log2 fold change; Dose.FC.LYZ.S [2, 14]: −0.294 log2 fold change
